Test results published in patent US8426338B2, “Chelating agents for micronutrient fertilisers” (Adelaide Research and Innovation Pty Ltd, priority 2005, dated 2013).

How the values were obtained:
Canola = experiment: Pot experiment: Zn fertiliser uptake by canola on alkaline and calcareous soils; assay type: in vivo, Canola (variety Pinnacle); settings: 21 days growth, chelate rates PEI 0.043, EDTA 0.37 μM/g soil, FIG. 1
Text: A pot experiment was designed to test the availability of Zn to Canola when applied to calcareous and alkaline soils either as ZnSO4.7H2O or chelated with PEI or EDTA.
Soil samples were collected from field sites known to be Zn responsive at Streaky Bay, South Australia and Birchip, Victoria (Table 1). Topsoils from each location were collected, oven dried and passed through a 2 mm sieve. The ^65Zn labelled experimental fertilisers were mixed with 20 g of soil, which was banded between 100 g of the unfertilised bulk soil. Total nutrient application equated to (μg/g soil) P 60, N 27, applied as TGMAP, and Zn 0.2 as ZnSO4.7H2O. Chelate rates were based on the concentrations required to complex 100% of the Zn in the fertiliser solution. Rates varied depending on the stoichiometry of the Zn-ligand complexes. GEOCHEM was used to predict the degree of chelation in the EDTA fertiliser solution. […]
Two pre-germinated Canola seeds (variety Pinnacle) were transferred to each pot. […] Plant digests were analysed for ^65Zn by gamma spectroscopy and for total nutrient contents by ICP-OES.
Data for shoot dry weight, shoot nutrient concentrations and Zn fertiliser uptake were analysed by analysis of variance (ANOVA). Significance between means was determined using the Least Significant Difference (LSD) test.

canola roots = experiment: Uptake of 65Zn from ice-cold solutions into canola roots (apoplast and symplast); assay type: in vivo; settings: 30 minutes, FIG. 4
Protocol: Each treatment was replicated in triplicate. After 30 minutes the canola roots were removed from the uptake solutions and rinsed with MilliQ water. Those roots used to measure symplastic absorption of Zn were transferred to ice-cold desorption solutions for 30 minutes in order to desorb apoplastically bound Zn. Desorption solutions contained 2 mM Na-MES (pH 6.0), 5 mM CaCl2 and 60 μM ZnCl2. Canola plants were separated into roots and shoots, blotted dry and weighed. Roots were transferred into radioactivity counting vials, to which 4 ml of 5M HNO3 was added. Samples were left overnight to solubilise the cell contents before the ^65Zn contents of roots were determined by gamma spectroscopy.

Canola seedlings = settings: 1 μM ZnSO4; 24-hour uptake; FIG. 6, FIG. 7
Protocol: Canola seedlings (Brassica napus var. Pinnacle) were pre-germinated on filter paper moistened with deionised water. On day 6, the seedlings were transferred to complete nutrient solution and moved into the glasshouse. The nutrient solution contained Ca (3.55 mM), Mg (1.45 mM), NO3^− (8.1 mM), H2PO4^− (0.2 mM), Cl (10 μM), Na (1.1 mM), K (1.2 mM), SO4 (1.45 mM), H3BO3 (30 μM), MoO4^2− (0.2M), FeEDDHA (25 μM), Mn (10 μM), Zn (1 μM), Cu (1 μM), buffered at pH 6.0 with 2 mM MES (2-morpholinoethanesulphonic acid, 50% as potassium salt) (Kupper et al, 2000). After 14 days, the canola plants, three per pot, were transferred to pre-treatment solution for 24 hours. Pre-treatment solution contained 2 mM NaMES (pH 6.0) and 0.5 mM CaCl2. Following pre-treatment, the plants were used in the ^65Zn uptake experiments.
Pre-treated canola seedlings were transferred to uptake solutions containing 2 mM KMES (pH 6.0), 0.5 mM CaCl2 and 1 μM ZnSO4 as either the metal salt or chelated with EDTA (control) or the eight forms of PEI described above. […]
After a 24-hour uptake period, canola shoots were harvested, weighed and digested in concentrated HNO3 at 140° C. Digest solutions were transferred to radioactivity counting vials for ^65Zn measurement by gamma spectroscopy. […]

Structure (SMILES): O=C(O)CN(CCN(CC(=O)O)CC(=O)O)CC(=O)O [EDTA, ethylenediaminetetraacetic acid]
- Total Zn uptake by canola (Canola; Birchip Sodosol): ineffective
- Total Zn uptake by canola (Canola; Streaky Bay calcareous grey sandy loam): ineffective
- Uptake of Zn into the root symplast (canola roots; 10 μM ZnCl2 chelated by 10 μM EDTA or 5 μM PEI): not readily absorbed
- Uptake of Zn into the root apoplast (canola roots; 10 μM ZnCl2 chelated by 10 μM EDTA): not readily absorbed
- Zn absorption and translocation to canola shoots (Zn transfer coefficient) (Canola seedlings): not readily absorbed and translocated to canola shoots
